According to patent US7960563B2, “Indazoles used to treat estrogen receptor beta mediated disorders” (Glaxo Group Limited, priority 2007, dated 2011):

Target: T1, ERbeta protein (Homo sapiens, UniProt Q92731)
T1 construct: […]; His6 (leader […]) (N)
Assay: ER beta FP binding assay
Conditions: 6 nM ERbeta protein, 1.5 nM ER FP ligand (Fluormone EL Red), 3 hours at room temperature; read-out: pIC50 in the ER beta FP binding assay (converted)
Method: (§1) Assay Buffer (AB) (50 mM MOPES pH 7.5, 50 mM NaF, 2.5 mM CHAPs), in deionized water, 5 mM 1,4 dithiothreitol (DTT) added on day of the experiment. The appropriate amount of AB was placed in a plastic tube, adding solid DTT before the assay was run. AB with DTT was distributed to plastic tubes. We have found use of plastic to be important vs glass. A final concentration of 6 nM ERbeta protein was added to the tube followed by gentle inversion. A final concentration of 1.5 nM ER FP ligand (Fluormone™ EL Red 200 nM in 20 mM Tris, 90% Methanol purchased from Invitrogen catalogue no P3030) was added to the same tube followed by gentle inversion. This was allowed to sit for 5-10 minutes before adding it to the 384 assay plate. Similar protocol was used for ERalpha with a final concentration of 4 nM ERalpha and 1.5 nM ER FP ligand.
(§2) 384 plates containing test compounds dissolved in 100% DMSO at 1 mM were serially diluted (1:3) by a Beckman FX. Serial diluted test compounds were added, […], to the assay plates with a maximum final concentration of 10 uM. Once the assay plates were ready, 10 uL of the above reagents were added to the appropriate set of plates with the Thermo combi. These plates were then sealed and place at room temperature for 3 hours.
The plates were then placed on the Molecular Devices Analyst and counted (excitation 535 nm, emission 590 nm with a 561 Dichroic mirror). Data was normalized to control then fitted to a non-linear least squares algorithm (see below).
pIC50 Calculation y=a+((b−a)/(1+(10^x/10^c)^d) Results
The amino acid sequence of human ER beta used in this assay is […]

T1 sequence (Q92731 with tags, fused parts or gaps): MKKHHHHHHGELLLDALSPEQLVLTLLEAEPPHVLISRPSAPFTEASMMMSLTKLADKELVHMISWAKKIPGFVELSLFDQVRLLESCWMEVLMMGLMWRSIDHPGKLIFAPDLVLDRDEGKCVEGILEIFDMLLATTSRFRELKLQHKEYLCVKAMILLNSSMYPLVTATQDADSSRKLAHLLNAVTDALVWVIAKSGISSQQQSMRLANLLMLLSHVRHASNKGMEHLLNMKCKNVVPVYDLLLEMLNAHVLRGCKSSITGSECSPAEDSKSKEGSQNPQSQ

Compound	IC50 [nM]
Oc1ccc(-n2ncc3c(O)cc(F)cc32)cc1F [Example 4, 6-Fluoro-1-(3-fluoro-4-hydroxyphenyl)-1H-indazol-4-ol]	< 100
Oc1ccc(-n2ncc3c(O)cccc32)cc1F [Example 1, 1-(3-Fluoro-4-hydroxyphenyl)-1H-indazol-4-ol]	< 100
N#Cc1cc(O)c2cnn(-c3ccc(O)c(F)c3)c2c1 [Example 3, 1-(3-Fluoro-4-hydroxyphenyl)-4-hydroxy-1H-indazole-6-carbonitrile]	< 100
Oc1ccc(-n2ncc3c(O)c(F)ccc32)cc1F [Example 10, 5-Fluoro-1-(3-fluoro-4-hydroxyphenyl)-1H-indazol-4-ol]	< 100
Oc1ccc(-n2ncc3c(O)cc(Cl)cc32)cc1F [Example 8, 6-Chloro-1-(3-fluoro-4-hydroxyphenyl)-1H-indazol-4-ol]	< 100
C=Cc1cc(O)c2cnn(-c3ccc(O)c(F)c3)c2c1 [Example 6, 6-Ethenyl-1-(3-fluoro-4-hydroxyphenyl)-1H-indazol-4-ol]	< 100
Oc1ccc(-n2ncc3c(O)cc(Br)cc32)cc1F [Example 5, 6-Bromo-1-(3-fluoro-4-hydroxyphenyl)-1H-indazol-4-ol]	< 100
Cc1cc(O)c2cnn(-c3ccc(O)c(F)c3)c2c1 [Example 9, 1-(3-Fluoro-4-hydroxyphenyl)-6-methyl-1H-indazol-4-ol]	< 100
CCc1cc(O)c2cnn(-c3ccc(O)c(F)c3)c2c1 [Example 7, 6-Ethyl-1-(3-fluoro-4-hydroxyphenyl)-1H-indazol-4-ol]	< 100

Other lines, results leading:

IC50 [nM]	Compound
< 100	Oc1ccc(-n2ncc3c(O)ccc(Cl)c32)cc1F [Example 14, 7-Chloro-1-(3-fluoro-4-hydroxyphenyl)-1H-indazol-4-ol]
< 100	Oc1ccc(-n2ncc3c(O)c(Br)ccc32)cc1F [Example 11, 5-Bromo-1-(3-fluoro-4-hydroxyphenyl)-1H-indazol-4-ol]
< 100	Oc1ccc(-n2ncc3c(O)cccc32)cc1Cl [Example 17, 1-(3-Chloro-4-hydroxyphenyl)-1H-indazol-4-ol]
< 100	Oc1ccc(-n2ncc3c(O)ccc(F)c32)cc1F [Example 13, 7-Fluoro-1-(3-fluoro-4-hydroxyphenyl)-1H-indazol-4-ol]

Target: T2, ERalpha (Homo sapiens, UniProt P03372)
T2 construct: […]; His6 (leader […]G) (N)
T2 sequence (P03372 with tags, fused parts or gaps): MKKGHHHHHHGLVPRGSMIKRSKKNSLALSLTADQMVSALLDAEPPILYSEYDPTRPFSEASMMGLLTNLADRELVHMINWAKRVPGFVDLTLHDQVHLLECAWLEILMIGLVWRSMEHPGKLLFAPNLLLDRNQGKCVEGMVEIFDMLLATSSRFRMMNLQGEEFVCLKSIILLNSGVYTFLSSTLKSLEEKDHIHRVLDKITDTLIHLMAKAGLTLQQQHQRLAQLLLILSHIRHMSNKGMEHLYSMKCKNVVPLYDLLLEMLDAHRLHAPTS
Assay: ER alpha FP binding assay
Conditions: ER beta versus ER alpha, FP binding assays
Method: as §1, §2
The plates were then placed on the Molecular Devices Analyst and counted (excitation 535 nm, emission 590 nm with a 561 Dichroic mirror). […]

Compound	selectivity versus ER alpha [fold]
Oc1ccc(-n2ncc3c(O)cccc32)cc1F [Example 1, 1-(3-Fluoro-4-hydroxyphenyl)-1H-indazol-4-ol]	> 10
